Experimental data published in ChEMBL document CHEMBL2073802, “Increase in doxorubicin cytotoxicity by inhibition of P-glycoprotein activity with lomerizine” (Biol Pharm Bull, 2001).

Molecular target: ATP-dependent translocase ABCB1 (Homo sapiens, UniProt P08183)
Assay: TP_TRANSPORTER: increase in Calcein intracellular accumulation (Calcein: 1 uM, Lomerizine: 10 uM) in K562/DOX cells
Format: functional, cell-based
Conditions: k562/adr

Sequence of ATP-dependent translocase ABCB1 (P08183 whole entry): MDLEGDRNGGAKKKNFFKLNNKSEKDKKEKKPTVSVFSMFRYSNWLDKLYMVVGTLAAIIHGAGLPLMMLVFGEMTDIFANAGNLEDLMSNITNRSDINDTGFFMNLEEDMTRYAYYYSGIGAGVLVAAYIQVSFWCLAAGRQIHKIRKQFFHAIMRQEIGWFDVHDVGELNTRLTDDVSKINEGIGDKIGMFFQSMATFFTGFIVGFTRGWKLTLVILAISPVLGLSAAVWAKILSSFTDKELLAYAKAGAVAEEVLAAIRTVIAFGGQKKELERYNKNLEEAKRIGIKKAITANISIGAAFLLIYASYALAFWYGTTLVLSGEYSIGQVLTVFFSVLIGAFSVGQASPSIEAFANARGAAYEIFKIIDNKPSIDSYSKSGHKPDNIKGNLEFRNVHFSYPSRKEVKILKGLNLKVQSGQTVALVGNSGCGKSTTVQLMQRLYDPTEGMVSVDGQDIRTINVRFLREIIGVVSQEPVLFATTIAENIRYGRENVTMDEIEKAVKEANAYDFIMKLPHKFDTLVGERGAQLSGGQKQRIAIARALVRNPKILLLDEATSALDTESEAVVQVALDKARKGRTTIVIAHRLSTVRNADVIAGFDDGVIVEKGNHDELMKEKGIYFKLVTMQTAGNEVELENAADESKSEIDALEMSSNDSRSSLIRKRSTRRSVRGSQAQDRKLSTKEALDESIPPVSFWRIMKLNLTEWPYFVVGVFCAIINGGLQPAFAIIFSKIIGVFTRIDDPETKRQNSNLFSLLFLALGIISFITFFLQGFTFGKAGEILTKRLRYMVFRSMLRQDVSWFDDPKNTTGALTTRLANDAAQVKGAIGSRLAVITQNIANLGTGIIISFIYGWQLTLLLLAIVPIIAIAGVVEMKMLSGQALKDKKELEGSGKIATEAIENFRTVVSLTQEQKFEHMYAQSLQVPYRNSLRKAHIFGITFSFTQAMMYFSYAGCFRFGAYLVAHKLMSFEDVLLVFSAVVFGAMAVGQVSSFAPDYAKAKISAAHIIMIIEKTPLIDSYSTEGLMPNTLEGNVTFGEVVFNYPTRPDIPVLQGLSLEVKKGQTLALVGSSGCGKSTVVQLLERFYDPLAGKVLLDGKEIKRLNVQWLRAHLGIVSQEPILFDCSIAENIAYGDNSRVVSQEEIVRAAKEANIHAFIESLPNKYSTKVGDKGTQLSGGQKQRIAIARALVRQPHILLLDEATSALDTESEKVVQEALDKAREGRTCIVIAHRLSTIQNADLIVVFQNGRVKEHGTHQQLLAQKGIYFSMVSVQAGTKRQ

Activity: inhibitor [+]
Compound: COc1ccc(CN2CCN(C(c3ccc(F)cc3)c3ccc(F)cc3)CC2)c(OC)c1OC [LOMERIZINE]
